Common to all, as to assay type: biochemical
A short description of assay [1]: Diphenyl-picryl-hydrazyl (DPPH) scavenging activity. The conditions noted are these: concentration needed to scavenge DPPH by 50%; EGCG moiety concentration for EGCG-containing samples, n = 3. As to the method:
Diphenyl-picryl-hydrazyl scavenging activity: Different amounts of a sample were mixed with the chemically stable free radical 1,1-diphenyl-2-picryl-hydrazyl (DPPH) solution and absorbance at 519 nm was continuously recorded for 30 min at 25° C. using a UV-visible spectrophotometer (JASCO V-510 UV/VIS/NIR spectrometer, Japan). All analyses were run in triplicate and the results were averaged.
Diphenyl-picryl-hydrazyl scavenging activity and Superoxide anion scavenging activity: The 1,1-diphenyl-2-picryl-hydrazyl radical (DPPH) assay, which measures hydrogen atom donating activity, provides an evaluation of antioxidant activity due to free radical scavenging. DPPH, a purple-coloured stable free radical, is reduced into the yellow-coloured diphenylpicry hydrazine, as the radical is scavenged by antioxidants through donation of hydrogen. […] The DPPH scavenging activity of samples was expressed by IC50 (the concentration needed to scavenge DPPH by 50%), as shown in Table 4. […] These activities were also much higher than those of commercial antioxidants, vitamin C and dibutylhydroxytoluen (BHT).

The nature of assay [2]: Superoxide anion scavenging activity (xanthine/XO, NBT reduction method). As to conditions: concentration needed to scavenge superoxide anion by 50%; EGCG moiety concentration for EGCG-containing samples, n = 3; read-out: Superoxide radical scavenging activity IC50. The procedure: Superoxide anion scavenging activity: Superoxide anion was generated using xanthine and xanthine oxidase (XO), and measured by the nitroblue tetrazolium (NBT) reduction method. A test sample was mixed in a buffer solution (pH 7.0) containing xanthine and NBT at 25° C. Measurement began with the addition of XO. […] All analyses were run in triplicate and the results were averaged. Superoxide scavenging activity was calculated according to the following formula: […] A mixture of xanthine and XO generates superoxide anion, which reduces nitroblue tetrazolium (NBT) to give the blue chromogen formazan and increases UV absorbance at 560 nm. Compounds capable of scavenging superoxide anion, such as superoxide dismutase (SOD), inhibit NBT reduction. […] Since compounds capable of scavenging superoxide anion can also affect NBT reduction, samples were investigated for their effects on these processes. […] Evaluation of scavenging activity against DPPH and superoxide anion provided direct evidence of the free radical scavenging potential of those compounds.

The target in another assay is T1, Xanthine oxidase (XO) (Bos taurus, UniProt P80457).
T1 construct: purchased Sigma-Aldrich
T1 sequence (P80457 2-1332 limits assumed): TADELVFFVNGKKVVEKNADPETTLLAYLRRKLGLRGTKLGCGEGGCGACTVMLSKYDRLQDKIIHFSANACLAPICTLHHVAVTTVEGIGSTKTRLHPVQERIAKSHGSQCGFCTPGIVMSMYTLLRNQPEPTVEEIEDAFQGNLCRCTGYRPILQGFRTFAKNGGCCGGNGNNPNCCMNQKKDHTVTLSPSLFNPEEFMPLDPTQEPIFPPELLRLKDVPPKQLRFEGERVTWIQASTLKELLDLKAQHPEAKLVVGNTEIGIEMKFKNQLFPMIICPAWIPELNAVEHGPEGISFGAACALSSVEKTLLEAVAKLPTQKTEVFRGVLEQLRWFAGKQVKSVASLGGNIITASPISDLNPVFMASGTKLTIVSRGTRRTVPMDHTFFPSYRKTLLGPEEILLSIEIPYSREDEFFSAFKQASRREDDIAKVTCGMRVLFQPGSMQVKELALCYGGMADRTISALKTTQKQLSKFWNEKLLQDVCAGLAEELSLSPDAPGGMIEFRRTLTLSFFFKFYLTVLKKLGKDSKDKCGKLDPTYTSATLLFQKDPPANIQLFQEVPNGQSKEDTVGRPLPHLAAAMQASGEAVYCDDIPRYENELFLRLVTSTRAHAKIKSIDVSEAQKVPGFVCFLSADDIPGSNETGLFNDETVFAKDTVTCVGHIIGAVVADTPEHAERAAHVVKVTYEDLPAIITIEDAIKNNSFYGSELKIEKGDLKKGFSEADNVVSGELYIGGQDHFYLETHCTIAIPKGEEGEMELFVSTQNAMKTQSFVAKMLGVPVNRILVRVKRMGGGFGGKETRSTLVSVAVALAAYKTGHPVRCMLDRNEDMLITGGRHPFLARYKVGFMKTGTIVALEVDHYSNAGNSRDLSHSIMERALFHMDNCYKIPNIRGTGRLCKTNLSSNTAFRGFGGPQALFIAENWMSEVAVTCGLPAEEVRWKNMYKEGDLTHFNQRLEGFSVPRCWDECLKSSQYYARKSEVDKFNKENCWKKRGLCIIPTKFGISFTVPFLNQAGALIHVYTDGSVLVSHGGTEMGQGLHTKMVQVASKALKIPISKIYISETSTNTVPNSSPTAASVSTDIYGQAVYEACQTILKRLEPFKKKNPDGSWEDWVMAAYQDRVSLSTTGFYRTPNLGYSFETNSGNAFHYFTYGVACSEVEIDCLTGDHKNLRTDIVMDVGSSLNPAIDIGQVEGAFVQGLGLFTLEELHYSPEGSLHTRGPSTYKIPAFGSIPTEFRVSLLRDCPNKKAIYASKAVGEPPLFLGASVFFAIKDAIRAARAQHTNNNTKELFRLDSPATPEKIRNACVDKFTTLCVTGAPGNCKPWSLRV
Description: Xanthine oxidase inhibitory activity (uric acid formation at 295 nm). The conditions noted are these: for XO inhibition activity: 10 μM of samples. As to the method: Xanthine oxidase inhibitory activity: The activity of XO was measured spectrophotometrically by monitoring the formation of uric acid at 295 nm for 30 min using a UV-visible spectrometer. The assay was carried out under the same conditions as the superoxide anion assay, and the percentage activity was calculated.

In the next assay the target is Urokinase (uPA) (Homo sapiens, UniProt P00749). The assay can be described thus: uPA inhibitory activity (SPECTROZYME UK). The conditions noted are these: over a range of tested concentrations, EGCG-unit concentration (FIG. 8).
For a further assay, the target named is T2, Lysozyme from egg white (Gallus gallus, UniProt P00698).
T2 construct: Lysozyme from egg white, Sigma Chemical; purchased Sigma Chemical; host or cells: egg white
T2 sequence (P00698 19-147): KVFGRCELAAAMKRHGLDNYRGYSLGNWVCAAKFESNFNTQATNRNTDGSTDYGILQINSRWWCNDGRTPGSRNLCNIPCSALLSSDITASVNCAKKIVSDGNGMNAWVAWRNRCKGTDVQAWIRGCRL
The assay can be described thus: Lysozyme activity upon complexation with OEGCG and recovery with Triton X-100. As to the method: Lysozyme from egg white, Sigma Chemical. Activity of lysozyme was determined spectrophotometically at 450 nm by the decrease in turbidity over time due to the cleavage of glucosidic linkages of Micrococcus lysodeikticus. […] To start the reaction, 0.25 mg/mL of Micrococcus lysodeikticus was added to the solution.
(§1) Activity was measured according to the specified method for each protein.
(§2) Activity for all proteins is calculated with the following equation:
(§3) [formula] where ΔAbssample is the change in absorbance over time with the test compound and ΔAbscontrol is the change in absorbance over time without the test compound.

The target of assay [3] is T3, Xanthine Oxidase from buttermilk (Bos taurus, UniProt P80457).
T3 construct: Xanthine Oxidase from buttermilk, Wako Chemical; purchased Wako Chemical; host or cells: buttermilk
T3 sequence (P80457 whole entry): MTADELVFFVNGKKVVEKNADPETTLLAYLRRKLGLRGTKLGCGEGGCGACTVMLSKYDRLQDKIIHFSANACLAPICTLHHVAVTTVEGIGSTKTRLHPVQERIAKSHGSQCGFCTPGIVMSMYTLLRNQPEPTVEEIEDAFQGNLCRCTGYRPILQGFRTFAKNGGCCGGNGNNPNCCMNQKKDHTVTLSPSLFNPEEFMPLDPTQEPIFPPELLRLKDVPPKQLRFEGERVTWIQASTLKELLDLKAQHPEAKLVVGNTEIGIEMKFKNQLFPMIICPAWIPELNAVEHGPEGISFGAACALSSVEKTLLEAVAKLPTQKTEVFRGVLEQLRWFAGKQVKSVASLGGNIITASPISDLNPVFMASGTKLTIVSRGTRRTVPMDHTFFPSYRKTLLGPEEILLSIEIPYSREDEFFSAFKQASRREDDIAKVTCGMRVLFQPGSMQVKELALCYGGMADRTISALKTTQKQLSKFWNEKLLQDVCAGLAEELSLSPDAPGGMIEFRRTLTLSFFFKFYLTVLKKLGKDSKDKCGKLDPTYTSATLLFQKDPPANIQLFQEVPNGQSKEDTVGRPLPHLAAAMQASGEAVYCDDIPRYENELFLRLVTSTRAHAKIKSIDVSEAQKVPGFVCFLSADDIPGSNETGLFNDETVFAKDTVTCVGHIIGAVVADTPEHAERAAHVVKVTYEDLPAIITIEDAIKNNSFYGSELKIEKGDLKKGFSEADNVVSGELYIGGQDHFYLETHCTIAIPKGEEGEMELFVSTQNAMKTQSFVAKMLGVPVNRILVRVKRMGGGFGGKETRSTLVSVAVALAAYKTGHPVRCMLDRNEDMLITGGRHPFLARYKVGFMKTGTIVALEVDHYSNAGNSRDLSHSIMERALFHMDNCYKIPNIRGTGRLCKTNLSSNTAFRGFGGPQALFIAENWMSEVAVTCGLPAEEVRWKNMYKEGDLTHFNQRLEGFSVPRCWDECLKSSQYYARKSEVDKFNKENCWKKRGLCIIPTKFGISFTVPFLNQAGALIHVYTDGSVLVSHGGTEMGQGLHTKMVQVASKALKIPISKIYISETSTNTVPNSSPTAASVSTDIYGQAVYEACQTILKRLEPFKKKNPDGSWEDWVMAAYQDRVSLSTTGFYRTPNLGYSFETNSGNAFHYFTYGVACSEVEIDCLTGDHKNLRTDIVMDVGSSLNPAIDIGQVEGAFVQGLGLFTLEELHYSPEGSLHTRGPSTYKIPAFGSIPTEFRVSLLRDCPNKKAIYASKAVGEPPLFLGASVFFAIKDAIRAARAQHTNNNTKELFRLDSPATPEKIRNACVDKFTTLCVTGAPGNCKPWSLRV
Description: Xanthine oxidase activity upon complexation with OEGCG and recovery with Triton X-100. As to conditions: highest OEGCG concentration. As to the method: XO activity was measured by determining uric acid production in a UV-vis spectrophotometer at 295 nm. The increase in absorbance due to the conversion of xanthine to uric acid was followed for 3 minutes. […] Activity was measured according to the specified method for each protein. Activity for all proteins is calculated with the following equation: [formula] where ΔAbssample is the change in absorbance over time with the test compound and ΔAbscontrol is the change in absorbance over time without the test compound.

The nature of assay [4]: ABTS radical scavenging activity. As to conditions: dissociation (FIG. 27). As to the method:
Radical scavenging activity: ABTS^.+ was prepared by mixing a 7 mM ABTS stock solution with 2.45 mM potassium persulfate ((1/1, v/v). The decolorization reaction was initiated by adding ABTS^.+ to samples in a phosphate buffer and immediately measured at 734 nm using a UV-Vis spectrophotometer (Hitachi, Japan).

Assay [5] concerns the target T4, Catalase from bovine liver (Bos taurus, UniProt P00432).
T4 construct: Catalase from bovine liver, Sigma Chemical; purchased Sigma Chemical; host or cells: bovine liver
T4 sequence (P00432 2-527 limits assumed): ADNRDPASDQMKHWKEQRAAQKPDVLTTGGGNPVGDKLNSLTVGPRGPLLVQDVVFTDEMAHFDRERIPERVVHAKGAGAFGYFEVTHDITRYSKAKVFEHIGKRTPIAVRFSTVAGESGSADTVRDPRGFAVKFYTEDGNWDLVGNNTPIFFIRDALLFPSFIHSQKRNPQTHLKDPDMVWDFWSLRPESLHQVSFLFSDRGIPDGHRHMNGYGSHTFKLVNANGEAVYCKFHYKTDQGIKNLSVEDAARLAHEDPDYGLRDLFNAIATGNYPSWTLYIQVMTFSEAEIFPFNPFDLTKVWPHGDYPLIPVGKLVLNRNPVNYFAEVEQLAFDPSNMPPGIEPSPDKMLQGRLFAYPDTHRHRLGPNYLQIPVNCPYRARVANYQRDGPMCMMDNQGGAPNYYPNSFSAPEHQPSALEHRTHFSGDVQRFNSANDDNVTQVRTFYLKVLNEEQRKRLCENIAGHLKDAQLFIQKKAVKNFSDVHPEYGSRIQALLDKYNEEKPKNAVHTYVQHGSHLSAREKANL
The assay can be described thus: Catalase activity upon complexation with OEGCG and recovery with Triton X-100. The procedure:
Catalase from bovine liver, Sigma Chemical. Catalase activity was measured by the disappearance of H2O2, followed at 240 nm in a UV-Vis spectrophotometer over a period of 200s. […] The reaction was started by adding 0.507 M H2O2 and mixing for 25 s.
as §1, §2, §3

Assay [6] has as its target T5, α-Amylase from Apergillus oryzae (Aspergillus oryzae, UniProt P0C1B3).
T5 construct: α-Amylase from Apergillus oryzae, Fluka; purchased Fluka; host or cells: Aspergillus oryzae
Description: α-Amylase activity upon complexation with OEGCG and recovery with Triton X-100. The procedure: α-Amylase from Apergillus oryzae, Fluka. Amylase activity was assayed with an activity kit from Molecular Probes (E-11954) using a fluorescence spectrophotometer with excitation wavelength at 505 nm and emission wavelength at 512 nm. […] Fluorescence was monitored over a period of 3 minutes.
as §1, §2, §3

Setting [7] is: addition of TX-100 after complexation with OEGCG.

A value given as a limit tells only on which side of the number the result lay.

Description for Urokinase (uPA): uPA inhibitory activity: Various amounts of a sample were mixed with uPA in a buffer solution, and incubated for 15 min at 37° C. The mixture solution was added with SPECTROZYME™ and absorbance at 405 nm was recorded for 10 min using a microplate reader.

The IC50 is the point on the concentration scale where inhibition reaches its midpoint. As for `Cc1cc(C(C)(C)C)c(O)c(C(C)(C)C)c1` [BHT, dibutylhydroxytoluen, reference compound], the concentration for half-maximal inhibition (IC50) in assay [1] and in [2] was over 250 µM in each case.
Turning to `O=C1O[C@H]([C@@H](O)CO)C(O)=C1O` [Vitamin C, reference compound], the figures for the IC50 in assay [1] and in [2] were 44.7 ± 0.4 µM and 30.3 ± 0.3 µM, respectively.
As a reminder, the inhibition is the share of the control response that was lost under treatment. As to `Oc1ncnc2[nH]ncc12` [allopurinol, reference compound], the inhibition at 10 µM on Xanthine oxidase (XO) (read-out: XO inhibition activity) stood at 22.6%.
“(−)-Epigallocatechin gallate [EGCG, reference compound]” registered an XO inhibition activity at Xanthine oxidase (XO) of 1.2%. For the same molecule, the XO inhibition entry on Xanthine oxidase (XO) (over the range of concentrations tested) is “less than 5%”. In addition, the IC50 is 7.3 ± 0.6 µM in assay [1] and 2.9 ± 0.3 µM in assay [2]. The uPA inhibition activity entry on Urokinase (uPA) is reported as “very low uPA inhibition activity”.
As for “PEG-epigallocatechin gallate conjugate [PEG-EGCG]”, the XO inhibition activity on Xanthine oxidase (XO) is 30.7%. Moreover, the 50% inhibitory concentration (IC50) in assay [1] was 6.2 ± 0.3 µM; in assay [2] it was 0.9 ± 0.1 µM. Also, at Urokinase (uPA), the uPA inhibition activity result is on record as “higher inhibition activities”.
The corresponding values for “PEG-oligomeric epigallocatechin gallate [PEG-OEGCG]” are 100%, 3.8 ± 0.8 µM, 0.4 ± 0.1 µM and “higher inhibition activities”.
Take “oligomeric epigallocatechin gallate [OEGCG]”: the inhibition of lysozyme result on Lysozyme from egg white (above an OEGCG ratio of 2) is reported as “All activity was suppressed”. The “lysozyme activity restored, % of the initial protein activity” value on Lysozyme from egg white (setting [7]) is “approximately 100%”. In [3], the “suppression of total XO activity” value is listed as 75%. The “ABTS radical scavenging activity upon complexation with proteins and dissociation” value in [4] is “suppressed by complexation with proteins was restored upon dissociation”. Also, the “further decrease of catalase activity” value in assay [5] (five fold increase in OEGCG concentration beyond OEGCG to protein ratio of 1) was “about 6%”. Moreover, the inhibition of catalase in assay [5] (highest OEGCG to protein ratio) is given as 30%. The XO inhibition activity at Xanthine oxidase (XO) was determined as 89.3%. The IC50 came to 4.9 ± 0.5 µM in assay [1] and 1.1 ± 0.2 µM in assay [2]. At Urokinase (uPA), the uPA inhibition activity result is “higher inhibition activities”. Besides, the “maximum inhibition of α-amylase” value in [6] is listed as “about 94%”. In assay [6] (OEGCG below a ratio of one), the “initial α-amylase activity inhibition” value amounted to 70%. In addition, the “α-amylase activity restored, % of the initial protein activity” value in assay [6] (setting [7]) was “approximately 100%”. In assay [6] (five fold increase in OEGCG concentration from a ratio of 1 to 5), the “decrease in α-amylase activity” value amounted to 20%.
